According to paper PMC11157491, “Novel Alaninamide Derivatives with Drug-like Potential for Development as Antiseizure and Antinociceptive Therapies—In Vitro and In Vivo Characterization” (ACS Chemical Neuroscience, 2024):
Where two headings read alike, the source gives them in different places.

Key:
mice [1] = assay: Spontaneous locomotor activity; type: in vivo; settings: all tested doses, i.p. 30 min before
Description: We aimed to test the influence of the test compound on spontaneous locomotor activity to investigate its sedative properties. The strong sedative activity of new compounds is considered an undesirable property, which may lead to an incorrect or ambiguous interpretation of the in vivo results.
Figure S3. […] The test compound or […]
vehicle (1% Tween 80 solution) were administered 30 min i.p. before the 30-min long evaluation of locomotor activity. The results are presented as bar plots showing the mean ± SEM. The statistical significance was evaluated by one-way ANOVA followed by Dunnett’s post hoc test: * p < 0.05, *** p < 0.001, n = 8–10 mice per […]
(1 picture or pasted object on this page, not shown here)

GABAA transporter = assay: GABA transporter binding (antagonist radioligand); settings: 100 μM, rat cerebral cortex
Description: Binding/functional studies were carried out commercially in Eurofins Laboratories (Poitiers, France) and Eurofins Panlabs Discovery Services Taiwan, Ltd. (New Taipei City, Taiwan) using testing procedures that were reported previously (for details, see Table S2).
Table S2. Radioligand binding and functional assays. […]
GABA transporter (antagonist radioligand) […]
Potassium channel (hERG) […]
Assays were performed commercially in Eurofins Laboratories ( Poitiers, France) or Eurofins Panlabs Discovery Services
Taiwan, Ltd. (New Taipei City, Taiwan).

mice [2] = assay: Formalin test; type: in vivo; settings: Mus musculus, ip, 30 min before test
Excerpt: One of the most useful screening methods for testing clinically relevant molecules is the formalin model. The local injection of formalin solution induces two distinct phases of the nociceptive response, which are associated with immediate activation of nociceptors (phase I) and sensitization of spinal reflex circuits (phase II).[41] It is important to note that during the second phase, there is also an inflammatory response to tissue damage. […] Thus, this model has been successfully used to assess the analgesic efficacy of a variety of compounds, including ASMs.[42]
The experimental groups consisted of 10 adult male Albino Swiss mice (CD-1, 18–25 g). Each animal was tested only once. Immediately after the assay, the animals were sacrificed by cervical dislocation. Behavioral measurements were observed by trained observers. […] The in vivo procedure for the model of capsaicin-induced nociception was previously reported;[67] the animals were pretreated with vehicle (10 mL/kg, negative control), and the dose–response of investigated compounds was evaluated at 12.5, 25, and 50 mg/kg.
Data are presented as means ± standard error of the mean (SEM). […] Statistically significant differences between groups were calculated using one-way analysis of variance (ANOVA) and the post hoc Dunnett’s multiple comparison test or two-way analysis of variance (ANOVA). […]

spontaneous locomotor activity (mice [1]): decreased spontaneous locomotor activity | % inhibition of control specific binding (GABAA transporter): 15.0%
SMILES: CC(=O)NC(C)C(=O)N1CCN(c2cccc(OC(F)(F)F)c2)CC1 (stereo not shown) [Compound 28, N-(1-oxo-1-(4-(3-(Trifluoromethoxy)phenyl)piperazin-1-yl)propan-2-yl)acetamide]
ED50 (mice [2]; read-out: ED50 formalin test phase I (acute phase)): 34.3 mg/kg | ED50 (mice [2]; read-out: ED50 formalin test phase II (late phase)): 22 mg/kg
